The NIST ThermoML archive (doi:10.1021/acs.jced.9b00278)
± gives the expanded uncertainty stated by the source.

Settings: DSC

Structure (SMILES): O=C(O)c1ccccc1Nc1cccc(C(F)(F)F)c1 [2-[[3-(trifluoromethyl)phenyl]amino]benzoic acid]
- Triple point temperature (Crystal 1): 410.95 ± 2.1 K
- Triple point temperature (Metastable crystal): 409.15 ± 2.1 K
